According to PMC11720030, “Inhibitory Activity of N- and S-Functionalized Monoterpene Diols Towards Monoamine Oxidases A and B” (International Journal of Molecular Sciences, 2024):

What was measured:
Type in all cases: biochemical
MAO-B [1] = molecular target: T1, MAO-B (Mus musculus, UniProt Q8BW75); assay: residual MAO-B activity at […], fluorescent kynuramine assay in crude mouse brain mitochondria; details: read-out: MAO-B, % ± SD
T1 construct: gene Maob
T1 sequence (Q8BW75 2-520): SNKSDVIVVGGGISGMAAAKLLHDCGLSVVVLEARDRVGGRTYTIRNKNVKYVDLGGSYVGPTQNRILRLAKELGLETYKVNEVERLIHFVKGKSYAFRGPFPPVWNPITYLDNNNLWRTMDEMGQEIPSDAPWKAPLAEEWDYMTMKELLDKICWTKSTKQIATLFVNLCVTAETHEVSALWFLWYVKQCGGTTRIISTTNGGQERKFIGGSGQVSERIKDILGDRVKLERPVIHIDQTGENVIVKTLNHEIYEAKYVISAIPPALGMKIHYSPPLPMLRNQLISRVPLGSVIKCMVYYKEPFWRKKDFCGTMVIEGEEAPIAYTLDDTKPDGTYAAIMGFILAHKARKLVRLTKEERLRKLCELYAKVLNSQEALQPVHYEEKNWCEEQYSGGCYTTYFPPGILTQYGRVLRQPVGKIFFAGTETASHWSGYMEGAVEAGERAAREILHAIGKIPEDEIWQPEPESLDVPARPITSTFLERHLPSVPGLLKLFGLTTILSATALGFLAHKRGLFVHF

MAO-A [2] = molecular target: T2, MAO-A (Mus musculus, UniProt Q64133); assay: fluorescent kynuramine MAO activity assay in crude mouse brain mitochondria
T2 construct: gene Maoa
T2 sequence (Q64133 1-526): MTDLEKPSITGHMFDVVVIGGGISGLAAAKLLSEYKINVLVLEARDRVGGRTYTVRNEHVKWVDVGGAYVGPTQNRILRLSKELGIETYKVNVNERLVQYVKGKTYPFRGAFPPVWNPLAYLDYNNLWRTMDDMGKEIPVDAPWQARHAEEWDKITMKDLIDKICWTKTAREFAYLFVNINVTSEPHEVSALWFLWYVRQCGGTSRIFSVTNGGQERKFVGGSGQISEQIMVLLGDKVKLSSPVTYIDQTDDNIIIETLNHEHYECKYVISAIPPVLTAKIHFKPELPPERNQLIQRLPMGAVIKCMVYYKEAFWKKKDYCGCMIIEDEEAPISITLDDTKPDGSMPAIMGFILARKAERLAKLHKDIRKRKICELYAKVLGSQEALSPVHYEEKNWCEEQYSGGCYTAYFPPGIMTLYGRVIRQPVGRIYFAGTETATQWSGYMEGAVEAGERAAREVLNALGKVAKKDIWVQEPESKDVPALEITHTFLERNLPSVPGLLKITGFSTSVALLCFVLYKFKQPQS

MAO-A [3] = molecular target: T2, MAO-A; assay: residual MAO-A activity at […], fluorescent kynuramine assay in crude mouse brain mitochondria; details: read-out: MAO-A, % ± SD
MAO-B [4] = molecular target: T1, MAO-B; assay: fluorescent kynuramine MAO activity assay in crude mouse brain mitochondria

activity at 100 µM (MAO-B [1]) [%] | Structure (SMILES) | IC50 (MAO-A [2]) [µM] | other results
66 ± 0.1 | C=C(CNc1ccc(C)cc1)[C@@H]1CC=C(C)[C@@H](O)[C@@H]1O [compound 27, (1R,2R,6S)-3-Methyl-6-(3-(p-tolylamino)prop-1-en-2-yl)cyclohex-3-ene-1,2-diol] | – | –
66 ± 2 | C=C(CNc1cccc(C(C)=O)c1)[C@@H]1CC=C(C)[C@@H](O)[C@@H]1O [compound 31, 1-(3-(2-((1S,5R,6R)-5,6-Dihydroxy-4-methylcyclohex-3-enyl)allylamino)phenyl)ethanone] | – | –
– | C=C(CNc1ccc(C)cc1C)[C@@H]1CC=C(C)[C@@H](O)[C@@H]1O [compound 28, (1R,2R,6S)-6-(3-(2,4-Dimethylphenylamino)prop-1-en-2-yl)-3-methylcyclohex-3-ene-1,2-diol] | 178 ± 44 | –
– | C=C(CNc1ccccc1C(C)=O)[C@@H]1CC=C(C)[C@@H](O)[C@@H]1O [compound 30, 1-(2-(2-((1S,5R,6R)-5,6-Dihydroxy-4-methylcyclohex-3-enyl)allylamino)phenyl)ethanone] | – | activity at 100 µM (MAO-A [3]): 57 ± 1%; IC50 (MAO-B [4]): 95 ± 5 µM
– | C#CCN(C)CCCOc1ccc(Cl)cc1Cl [clorgiline, reference compound] | 0.00136 | –
